# Laboratory results: patent US7947707B2, “Nitrogenated heterocyclic compound and pharmaceutical composition comprising the same” (Kissei Pharmaceutical Co., Ltd., priority 2005, dated 2011)
# Experiments:
# [1] = target: T1, xanthine oxidase (from buttermilk) (Bos taurus, UniProt P80457); test: Xanthine oxidase inhibitory effect; type: biochemical; conditions: 100 μmol/L xanthine, 5 mU/mL enzyme; read-out: X.O. inhibition IC50
# T1 construct: xanthine oxidase (from buttermilk; biozyme laboratories); purchased biozyme laboratories; host or cells: buttermilk (natural source)
# T1 sequence (P80457 whole entry): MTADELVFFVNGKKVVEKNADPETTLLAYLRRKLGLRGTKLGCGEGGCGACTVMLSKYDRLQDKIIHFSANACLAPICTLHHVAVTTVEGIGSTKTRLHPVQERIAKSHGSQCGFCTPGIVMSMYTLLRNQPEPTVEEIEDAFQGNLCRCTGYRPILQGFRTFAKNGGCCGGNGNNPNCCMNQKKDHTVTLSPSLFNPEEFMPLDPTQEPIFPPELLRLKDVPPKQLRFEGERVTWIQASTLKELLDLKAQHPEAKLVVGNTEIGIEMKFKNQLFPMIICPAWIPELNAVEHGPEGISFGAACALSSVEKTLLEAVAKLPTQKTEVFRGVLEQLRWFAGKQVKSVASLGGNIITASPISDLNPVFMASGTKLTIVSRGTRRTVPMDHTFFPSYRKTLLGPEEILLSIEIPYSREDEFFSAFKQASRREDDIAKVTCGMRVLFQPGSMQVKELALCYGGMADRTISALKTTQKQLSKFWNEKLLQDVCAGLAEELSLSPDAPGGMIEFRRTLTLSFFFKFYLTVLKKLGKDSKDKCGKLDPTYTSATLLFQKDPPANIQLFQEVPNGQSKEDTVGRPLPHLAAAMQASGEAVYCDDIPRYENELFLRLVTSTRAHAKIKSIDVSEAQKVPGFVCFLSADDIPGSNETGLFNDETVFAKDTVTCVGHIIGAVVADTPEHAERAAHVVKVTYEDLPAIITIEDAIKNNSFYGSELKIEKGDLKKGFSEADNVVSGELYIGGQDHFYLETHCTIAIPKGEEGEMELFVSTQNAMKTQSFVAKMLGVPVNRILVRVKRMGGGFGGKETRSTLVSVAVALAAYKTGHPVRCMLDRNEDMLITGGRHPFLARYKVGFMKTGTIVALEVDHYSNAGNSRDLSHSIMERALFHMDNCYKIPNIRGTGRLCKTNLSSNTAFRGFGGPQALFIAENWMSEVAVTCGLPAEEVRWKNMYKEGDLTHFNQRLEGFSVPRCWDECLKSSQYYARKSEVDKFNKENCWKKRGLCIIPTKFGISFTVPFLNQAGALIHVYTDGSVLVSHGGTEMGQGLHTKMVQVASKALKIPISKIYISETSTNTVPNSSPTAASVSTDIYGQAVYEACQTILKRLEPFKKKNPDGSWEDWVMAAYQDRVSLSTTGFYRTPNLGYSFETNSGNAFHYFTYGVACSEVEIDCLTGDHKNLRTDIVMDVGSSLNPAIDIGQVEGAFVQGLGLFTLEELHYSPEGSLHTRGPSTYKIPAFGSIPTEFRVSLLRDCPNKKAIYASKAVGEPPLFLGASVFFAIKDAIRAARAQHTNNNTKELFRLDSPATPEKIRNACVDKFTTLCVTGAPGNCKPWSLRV
# Procedure: Assay for inhibition of xanthine oxidase was performed in 100 μmol/L substrate concentration (final concentration), 5 mU/mL enzyme concentration (final concentration) and compounds of the present invention as test compounds which were prepared with xanthine oxidase (from buttermilk; biozyme laboratories), xanthine (Sigma) and phosphate-buffered saline (PBS). In addition, all test compounds were frozen for preservation in condition of 20 mmol/L DMSO solution and used for experiments after thawing at need. Method is following: after diluted solution of test compound was added to 90 μL of 11.1 mU/mL enzyme solution, the mixture was incubated for 10 minutes after mixing. To start reaction, 100 μL of 200 μmol/L substrate solution was added to there, 10 minutes later, the reaction was stopped by addition of 500 μL of 0.5 mol/L sulfuric acid, and then absorbance at […] was measured. Final concentration of test compound was a single concentration, 10 μmol/L in single well for initial screening and 6 concentrations, 10, 1 μmol/L, 100, 10, 1 nmol/L, 100 pmol/L in duplicate for assay to calculate 50% inhibitory concentration (IC50) which were used for assay. Percent inhibition was calculated according to the formula described below. Percent inhibition (%)=(A−B)/(A−C)×100
# In formula, A means absorbance in wells without test compound, B means absorbance in wells with test compound, C means absorbance in blank wells.
# IC50 value was calculated from percent inhibition in each concentration by nonlinear regression method.
# [2] = system: potassium oxonate induced hyperuricemia; test: Blood hypouricemic effect, potassium oxonate induced hyperuricemia; type: in vivo; conditions: Rattus norvegicus, po; 10 mg/kg orally; male SD rats; serum 2 hours after administration; read-out: Decrease (%) in UA concentration
# Procedure: Effect of compound of the present invention as a test compound was studied on potassium oxonate induced hyperuricemia with male 7-week-old SD rats (Charles River Japan) and potassium oxonate (Aldrich) suspended in 1% gum arabic solution. Test compound was suspended in 0.5% CMC-Na solution, and then administered orally. Dosing was 10 mg/kg or 50 mg/kg. All volume of administered solution was 10 mL/kg. Potassium oxonate 250 mg/kg was administered to dorsal region of rats subcutaneously, 1 hour later each test compound was administered orally. For control group, only 0.5% CMC-Na solution as a vehicle was administrated. At 2 hours after administration of test compounds or vehicle, blood was collected under ether anesthesia, and serum was separated according to general method. Treated number was 5 for each group.
# Measurement of concentration of uric acid was conducted with following prepared reagents. The deproteinization reagent was prepared in the following manner; 100 g of sodium tungstate was added to a 2 L flask, and exactly 75 mL of 85% phosphoric acid and 500 mL of water were added to the flask equipped with a reflux condenser, and heated for an hour. After cooling, the resulting faint yellow-green solution was diluted to 1 L exactly. Sodium carbonate-urea reagent was prepared in the following manner; 14 g of anhydrous sodium carbonate and 14 g of urea were dissolved in water and final volume of the solution was adjusted to 100 mL exactly. Phosphotungstic coloring reagent was prepared in 4-fold dilution of deproteinzation reagent described above with water. UA standard solution (10 mg/dL: Kyokuto pharmaceutical industrial CO., LTD) was used as an uric acid standard solution, and then serially diluted uric acid standard solution with purified water was also used for standard curve.
# Three hundred μL of serum or standard was added to 2.1 mL of purified water, and then 150 μL of deproteination reagent was also added to the solution, followed by mixing. After incubating for 20 minutes, the mixture was centrifuged at 3000 rpm for 10 minutes. Sodium carbonate-urea reagent (0.5 mL) was added to 1.5 mL of supernatant, and the mixture was incubated for 20 minutes. Next, after addition of 250 μL of coloring reagent, further incubation was carried over 15 minutes. Absorbance at 660 nm was measured, and concentration of uric acid was calculated with standard curve. Percent decrease in concentration of uric acid was calculated by following formula. Percent decrease in concentration of uric acid (%)=(A−B)/A×100
# In formula, A means average of concentration of blood uric acid in control group, B means average of concentration of blood uric acid in test compounds-treated group.
# [3] = target: T2, HEK293 cells forced to express URAT1 (Homo sapiens, UniProt Q96S37); test: URAT1 inhibitory effect, [8-14C] uric acid uptake; type: cell-based; conditions: test compound 100 μmol/L, 20 μmol/L uric acid, 5 minutes uptake
# T2 construct: host or cells: HEK293
# T2 sequence (Q96S37 1-553): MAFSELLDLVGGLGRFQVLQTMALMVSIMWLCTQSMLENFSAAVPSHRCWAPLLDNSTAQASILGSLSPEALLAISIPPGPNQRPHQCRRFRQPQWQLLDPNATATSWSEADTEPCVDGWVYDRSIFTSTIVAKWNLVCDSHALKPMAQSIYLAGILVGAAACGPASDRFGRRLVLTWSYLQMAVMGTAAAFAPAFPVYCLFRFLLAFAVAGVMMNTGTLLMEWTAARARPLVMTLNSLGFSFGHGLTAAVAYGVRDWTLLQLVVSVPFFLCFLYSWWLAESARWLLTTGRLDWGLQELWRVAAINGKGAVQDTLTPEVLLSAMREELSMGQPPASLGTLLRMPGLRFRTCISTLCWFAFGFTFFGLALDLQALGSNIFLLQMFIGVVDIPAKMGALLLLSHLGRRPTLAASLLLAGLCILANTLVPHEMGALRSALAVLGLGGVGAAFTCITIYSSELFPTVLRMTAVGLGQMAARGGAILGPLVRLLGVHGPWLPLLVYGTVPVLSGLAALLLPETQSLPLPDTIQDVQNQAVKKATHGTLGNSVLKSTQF
# Text: DMEM containing 10% FBS (supplemented with 0.05% geneticin, Nissui Pharmaceutical Co., Ltd.), HEK293 cells forced to express URAT1 (HCS (Human cell Systems), (Fuji Biomedix)), HBSS as washing buffer and HBSS substituted with Na-gluconate (NaCl in HBSS was substituted with Na-gluconate) were used for assay. [8-^14C] uric acid (moravek) was used as an uric acid reagent and added to assay buffer at 20 μmol/L as a final concentration. Compounds of the present invention were used as a test compound, 20 mmol/L stock solution of each test compound (DMSO solution) was diluted appropriately, and then the diluted test compound solution was added to assay buffer at 100 μmol/L as a final concentration including 0.5% final concentration of DMSO.
# To prepare assay plates, at first, cells on subculture petri dish were peeled off using treatment of 0.05% trypsin-EDTA solution, and then seeded on Biocoat Poly-D-Lysine Cellware 24 well plate (BECTON DICKINSON) at a density of 2×10^5 cells/well and cultured for 2 days.
# For the uptake study, at first, culture medium was removed by aspiration and cells were washed twice with HBSS (37° C.), then the buffer was replaced with 1 mL of assay buffer (37° C.). Cells were pre-incubated for 10 minutes. And then, the buffer was removed by aspiration and 0.5 mL of radioisotope ligand solution incubated at 37° C. was added, then cells were incubated for 5 minutes. After uptake, radioisotope solution was removed by aspiration, and immediately cells were washed three times with ice-cold HBSS, followed by resolving by addition of 0.5 mL of 0.5 mol/L NaOH. Cell lysate solution was transferred to a vial or 24 well plate for Betaplate, and mixed with 0.5 mL of liquid scintillator (Optiphase ‘Super Mix’; Perkin Elmer). Radioisotope activity was measured (using Betaplate 1450). As mean count in control solution not including test compound was 100%, percent inhibition was calculated by determining percent decrease in mean count in solution including test compound from mean count in control solution.
Compound,IC50 [1],inhibition in vivo at 10 mg/kg [2],inhibition at 100 µM [3]
N#Cc1cn(-c2ccc(C(=O)O)cc2)cc1-c1ccccc1 [XO-B327],4.9 nM,74.1%,
N#Cc1nn(-c2ccc(C(=O)O)cc2)nc1-c1ccccc1 [XO-B366],77.7 nM,,
Cc1ccccc1-c1cn(-c2ccc(C(=O)O)cc2)cc1C#N [XO-B395-1],3.59 nM,79.1%,
N#Cc1cn(-c2ccc(C(=O)O)cc2)cc1-c1ccccc1Cl [XO-B397],5.24 nM,76.7%,
Cc1ccc(-c2cn(-c3ccc(C(=O)O)cc3)cc2C#N)s1 [XO-B399-2],5.56 nM,69.4%,
COc1ccccc1-c1cn(-c2ccc(C(=O)O)cc2)cc1C#N [XO-B403],5.98 nM,62.1%,
Cn1cccc1-c1cn(-c2ccc(C(=O)O)cc2)cc1C#N [XO-B410],5 nM,59.1%,
N#Cc1cn(-c2ccc(C(=O)O)cc2)cc1-c1ccc(Cl)s1 [XO-B414],5.86 nM,67.1%,
N#Cc1cn(-c2ccc(C(=O)O)cc2)cc1-c1nccs1 [XO-B420],6.33 nM,,
N#Cc1cn(-c2ccc(C(=O)O)cc2)cc1-c1ccc(Cl)cc1 [XO-B421],5.71 nM,57.8%,
COc1ccc(-c2cn(-c3ccc(C(=O)O)cc3)cc2C#N)cc1 [XO-B422],3.56 nM,79%,
Cc1ccc(-c2cn(-c3ccc(C(=O)O)cc3)cc2C#N)cc1 [XO-B423],4.26 nM,66.6%,
N#Cc1cn(-c2ccc(C(=O)O)cc2)cc1-c1ccc(C(F)(F)F)cc1 [XO-B428],5.09 nM,68.3%,
N#Cc1cn(-c2ccc(C(=O)O)cc2)cc1-c1ccccc1F [XO-B436],3.71 nM,77.3%,
N#Cc1cn(-c2ccc(C(=O)O)cc2)cc1-c1ccc(F)cc1 [XO-B438],5.03 nM,69.3%,
Cc1c(-c2ccccc2)c(C#N)cn1-c1ccc(C(=O)O)cc1 [XO-B440],15.2 nM,57.6%,
Cc1c(C#N)c2ccccc2n1-c1ccc(C(=O)O)cc1 [XO-CH172],,,88.3%
Cc1cccc2c(C#N)cn(-c3ccc(C(=O)O)cc3)c12 [XO-CH205],,,95.7%

Compound,IC50 [1],inhibition in vivo at 10 mg/kg [2],inhibition at 100 µM [3]
N#Cc1cn(-c2ccc(C(=O)O)cc2)c2cc(C(F)(F)F)ccc12 [XO-CH206],,,98.1%
N#Cc1cn(-c2ccc(C(=O)O)cc2)c2ncccc12 [XO-KT10],,,92.3%
N#Cc1cn(-c2ccc(C(=O)O)cc2)c2nc(Cl)ccc12 [XO-KT18],,,95.2%
N#Cc1cnc2c(c1)c(C#N)cn2-c1ccc(C(=O)O)cc1 [XO-KT20],,,64.6%
N#Cc1cn(-c2ccc(C(=O)O)cc2)nc1-c1ccccc1 [XO-TT469],8.18 nM,75%,
N#Cc1cn(-c2ccc(-c3nnn[nH]3)cc2)nc1-c1ccccc1 [XO-TT473],16 nM,,
N#Cc1cn(-c2ccc(C(=O)O)cc2)nc1-c1ccccc1Cl [XO-TT524],5.18 nM,68.7%,
Cc1ccc(-c2nn(-c3ccc(C(=O)O)cc3)cc2C#N)cc1 [XO-TT537],4.86 nM,,
COc1ccc(-c2nn(-c3ccc(C(=O)O)cc3)cc2C#N)cc1 [XO-TT544],3.77 nM,71.1%,
Cc1ccsc1-c1nn(-c2ccc(C(=O)O)cc2)cc1C#N [XO-TT545],5.21 nM,75.8%,
COc1cccc(-c2nn(-c3ccc(C(=O)O)cc3)cc2C#N)c1 [XO-TT552],5.59 nM,,
Cc1ccc(-c2nn(-c3ccc(C(=O)O)cc3)cc2C#N)s1 [XO-TT554],5.44 nM,60.5%,
N#Cc1cn(-c2ccc(C(=O)O)cc2)nc1-c1ccccc1F [XO-TT559],2.91 nM,75.9%,
N#Cc1cn(-c2ccc(C(=O)O)cc2)nc1-c1ccccc1C(F)(F)F [XO-TT561],8.47 nM,,
N#Cc1cn(-c2ccc(C(=O)O)cc2)nc1-c1ccc(F)cc1 [XO-TT572],4.12 nM,56.1%,
Cc1ccccc1-c1nn(-c2ccc(C(=O)O)cc2)cc1C#N [XO-TT573],4 nM,66.3%,
COc1ccccc1-c1nn(-c2ccc(C(=O)O)cc2)cc1C#N [XO-TT574],5.52 nM,,
